# Assays:
# Format in all cases: in vivo, Sprague-Dawley rats
# [1] = tested on: CHOP; test: Western blot of CHOP in spinal cord after contusion SCI
# Protocol: (§1) Adult females Sprague-Dawley rats aged 11 weeks (220-250 g) were anesthetized with pentobarbital (40 mg/kg i.p.). When unresponsive, the vertebral column was exposed and a laminectomy carried out at T8-T9 levels. Rostral T7 and caudal T10 vertebral bodies were clamped with Adson stabilizing forceps, and carefully adjusted to level the spinal cord in the horizontal plane. A contusion injury was performed using the Infinite Horizon impactor device (Precision Scientific Instruments, Lexington, KY). The stainless steel impounder tip was placed at 3-4 mm above the exposed spinal cord, and then a fast impact produced applying forces of 150 or 250 kilodynes (KDyn) to the exposed spinal cord. The wound was sutured with 5-0 silk thread in the muscular plane and the skin was closed with small clips and disinfected with povidone iodine solution. Sham-operated animals received the same surgical procedure but sustained no impact injury; the spinal cord was left exposed for 5 min. The animals were maintained in a warm environment until full recovery, and received preventive antibiotic (amoxicyline) and analgesic (buprenorphine) treatment. All animals were kept under standard conditions of light and temperature and fed with food and water ad libitum. The procedures involving animals were approved by the Ethics Committee of our institution, and followed the European Communities Council Directive 86/609/EEC.
# VPA was intraperitoneally administered at an initial dose of 150 mg/kg by 3 h after surgery, and then a dose of 300 mg/Kg either every 24 h or every 12 h during the first week post-surgery, following by a dose of 300 mg/Kg every 24 h for the next two weeks. Groups of rats subjected to SCI or sham operation received VPA or saline injections following the same regime. […]
# (§2) Rats were re-anesthetised and decapitated at 3 dpo for sample preparation. […] After clearance, protein concentration was measured by the BCA method assay (BCA Protein Assay kit, Pierce). […]
# [2] = tested on: acetylated histone-3 (acetyl-H3); test: Western blot of acetylated histone-3 in spinal cord after contusion SCI; conditions: 250 Kdyn contusion, VPA every 12 h, vs SCI without VPA
# Protocol: as §1, with “All animals were kept under standard conditions of light and temperature and fed with food and water ad libitum. The procedures involving animals were approved by the Ethics Committee of our institution, and followed the European Communities Council Directive 86/609/EEC.” left out
# as §2
# [3] = tested on: P-eIF2α; test: Western blot of phospho-eIF2α in spinal cord after contusion SCI; conditions: whether higher in VPA-treated injured spinal cords than in vehicle-treated ones
# Protocol: as §1, with “The animals were maintained in a warm environment until full recovery, and received preventive antibiotic (amoxicyline) and analgesic (buprenorphine) treatment. All animals were kept under standard conditions of light and temperature and fed with food and water ad libitum. The procedures involving animals were approved by the Ethics Committee of our institution, and followed the European Communities Council Directive 86/609/EEC.” left out
# Rats were re-anesthetised and decapitated at 3 dpo for sample preparation. […] After clearance, protein concentration was measured by the BCA method assay (BCA Protein Assay kit, Pierce). […] The membrane was visualized by enhanced chemiluminiscence (ECL) method and the images analyzed with Gene Snap and Gene Tools software, and Gene Genome apparatus (Syngene). […]
# [4] = tested on: tibialis anterior muscle; test: Electrophysiological tests (H/M ratio, motor evoked potentials) after spinal cord contusion
# Protocol: as §1
# VPA was intraperitoneally administered at an initial dose of 150 mg/kg by 3 h after surgery, and then a dose of 300 mg/Kg either every 24 h or every 12 h during the first week post-surgery, following by a dose of 300 mg/Kg every 24 h for the next two weeks. […]
# Electrophysiological tests were performed at 14 and 28 days after operation. […] The H/M amplitude ratio was calculated. Motor evoked potentials (MEPs) were elicited by transcranial stimulation with two needle electrodes placed subcutaneously over the skull, delivering pulses of 0.1 ms duration and 25 mA intensity, and recorded from the tibialis anterior muscle (Garcia-Alias et al., 2003).
# [5] = tested on: axons; test: Immunohistochemistry of axons (RT97 neurofilament, 5-HT) after SCI
# Protocol: as §1, with “The procedures involving animals were approved by the Ethics Committee of our institution, and followed the European Communities Council Directive 86/609/EEC.” left out
smiles,measurement,setting,value
"CCCC(CCC)C(=O)O [VPA, 2-propylpentanoic acid]",CHOP levels,"[1]; VPA 300 mg/kg every 12 h i.p., contusion 150 and 250 KDyn, three days post-injury",significantly reduced
same,"CHOP level reduction, 250 KDyn versus 150 KDyn contusion","[1]; VPA 300 mg/kg every 12 h i.p., three days post-injury",more pronounced
same,CHOP levels,"[1]; VPA 300mg/kg once per day i.p., vs saline, 3 days post-injury",did not produce changes
same,levels of acetylated H3,[2],further increased
same,levels of P-eIF2α,[3],not
same,mean amplitudes of MEPs,"[4]; 14 and 28 days postlesion, vs group control",slightly higher
same,mean H/M amplitude ratio,"[4]; 14 days, injured rats",about 9%
same,mean H/M amplitude ratio,"[4]; 28 days, control group 20%",16%
same,density of axonal profiles,"[5]; anti-neurofilament antibody RT97, rostral and caudal to the lesion",increased density
same,number of serotonin (5-HT)-positive axons,[5]; rostral and caudal to the lesion,increased
